Consider 23 compounds from patent US7417054B2, “Naphthyridine compounds” (Janssen Pharmaceutica N.V., priority 2005, dated 2008).

Structures can show the parent of a compound that is named as a salt. Where two headings read alike, the source gives them in different places.

The target in one assay is T1, human SERT (Homo sapiens, UniProt P31645).
T1 construct: expressed in transfected cells; host or cells: HEK293
Description: Human SERT binding, 3H-citalopram displacement on HEK293 membranes. The following applies: HEK293 membranes expressing the human SERT, rt for 1 h. How it is done:
Homogenized HEK293 (Human Embryonic Kidney) membranes expressing the human SERT were incubated with ^3H-citalopram (SERT) at rt for 1 h in 50 mM Tris, 120 mM NaCl, 5 mM KCl (pH 7.4). […] The membranes were washed and the radioactivity was counted as above.

The target in another assay is Rat SERT (Rattus norvegicus, UniProt P31652). Description: Rat brain SERT binding, [3H]-Citalopram displacement on rat brain membranes.
The target of assay [1] is T2, human H3 receptor (Homo sapiens, UniProt Q9Y5N1).
T2 construct: expressed in transfected cells; host or cells: SK-N-MC cells
Description: H3 receptor binding, N-[3H]-α-methylhistamine displacement on SK-N-MC cell membranes. The following applies: cloned human H3 receptor in SK-N-MC cell membranes; 0.8 nM N-[3H]-α-methylhistamine; 60 min at 25° C.

The target in assay [2] is T2, human H3 receptor. Description: Cyclic AMP accumulation, β-galactosidase reporter in SK-N-MC cells. Type of assay: cell-based. As to the method: Sublines of SK-N-MC cells were created that expressed a reporter construct and the human H3 receptor. The reporter gene (β-galactosidase) is under the control of multiple cyclic AMP responsive elements. In 96-well plates, histamine was added directly to the cell media followed 5 min later by an addition of forskolin (5 μM final concentration). When appropriate, antagonists were added 10 min prior to agonist addition. After a 6-h incubation at 37° C., the media was aspirated and the cells washed with 200 μL of phosphate-buffered saline followed by a second aspiration. Cells were lysed with 25 μL 0.1× assay buffer (10 mM Na-phosphate, pH 8, 0.2 mM MgSO4, 0.01 mM MnCl2) and incubated at rt for 10 min. Cells were then incubated for 10 min with 100 μL of 1× assay buffer containing 0.5% Triton and 40 mM β-mercaptoethanol. Color was developed using 25 μL of 1 mg/mL substrate solution (chlorophenolred β-D galactopyranoside; Roche Molecular Biochemicals, Indianapolis, Ind.) Color was quantitated on a microplate reader at absorbance 570 nm.

The mark [3] stands for this setting: read-out: Rat SERT Ki, rat brain membranes without cerebellum, 0.6 nM [3H]-Citalopram, 60 min at 25° C.
The mark [4] stands for this setting: Rat SERT Ki (nM), rat brain membranes without cerebellum, 0.6 nM [3H]-Citalopram, 60 min at 25° C.

T2 sequence (Q9Y5N1 whole entry): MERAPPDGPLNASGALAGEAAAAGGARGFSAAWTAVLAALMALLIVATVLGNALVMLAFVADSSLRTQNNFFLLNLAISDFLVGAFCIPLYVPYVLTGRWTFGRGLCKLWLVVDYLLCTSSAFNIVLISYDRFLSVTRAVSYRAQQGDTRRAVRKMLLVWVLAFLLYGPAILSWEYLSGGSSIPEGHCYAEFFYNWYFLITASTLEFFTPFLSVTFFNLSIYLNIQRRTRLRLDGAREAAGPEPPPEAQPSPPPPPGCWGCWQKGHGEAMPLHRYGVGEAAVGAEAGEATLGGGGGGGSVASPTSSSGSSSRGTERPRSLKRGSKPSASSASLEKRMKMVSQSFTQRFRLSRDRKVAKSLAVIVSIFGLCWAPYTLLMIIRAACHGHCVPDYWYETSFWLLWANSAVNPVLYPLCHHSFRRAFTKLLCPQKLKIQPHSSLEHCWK
T1 sequence (P31645 whole entry): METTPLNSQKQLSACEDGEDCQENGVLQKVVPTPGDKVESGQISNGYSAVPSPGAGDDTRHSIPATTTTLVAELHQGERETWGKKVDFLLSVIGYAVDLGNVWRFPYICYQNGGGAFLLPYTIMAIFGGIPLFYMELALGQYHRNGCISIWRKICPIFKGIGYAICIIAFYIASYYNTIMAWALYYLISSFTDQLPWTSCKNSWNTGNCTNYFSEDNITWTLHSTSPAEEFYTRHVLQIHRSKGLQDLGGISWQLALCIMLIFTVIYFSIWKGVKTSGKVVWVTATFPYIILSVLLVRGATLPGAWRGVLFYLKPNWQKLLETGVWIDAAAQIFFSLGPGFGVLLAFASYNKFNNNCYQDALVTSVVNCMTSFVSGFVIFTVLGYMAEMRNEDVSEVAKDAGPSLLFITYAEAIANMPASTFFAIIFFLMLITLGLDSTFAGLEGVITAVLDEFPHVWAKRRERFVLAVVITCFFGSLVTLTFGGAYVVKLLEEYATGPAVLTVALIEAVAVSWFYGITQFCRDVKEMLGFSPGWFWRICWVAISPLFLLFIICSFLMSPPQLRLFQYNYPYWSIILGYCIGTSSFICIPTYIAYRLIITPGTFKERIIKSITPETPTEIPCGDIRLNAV
Rat SERT, sequence (P31652 whole entry): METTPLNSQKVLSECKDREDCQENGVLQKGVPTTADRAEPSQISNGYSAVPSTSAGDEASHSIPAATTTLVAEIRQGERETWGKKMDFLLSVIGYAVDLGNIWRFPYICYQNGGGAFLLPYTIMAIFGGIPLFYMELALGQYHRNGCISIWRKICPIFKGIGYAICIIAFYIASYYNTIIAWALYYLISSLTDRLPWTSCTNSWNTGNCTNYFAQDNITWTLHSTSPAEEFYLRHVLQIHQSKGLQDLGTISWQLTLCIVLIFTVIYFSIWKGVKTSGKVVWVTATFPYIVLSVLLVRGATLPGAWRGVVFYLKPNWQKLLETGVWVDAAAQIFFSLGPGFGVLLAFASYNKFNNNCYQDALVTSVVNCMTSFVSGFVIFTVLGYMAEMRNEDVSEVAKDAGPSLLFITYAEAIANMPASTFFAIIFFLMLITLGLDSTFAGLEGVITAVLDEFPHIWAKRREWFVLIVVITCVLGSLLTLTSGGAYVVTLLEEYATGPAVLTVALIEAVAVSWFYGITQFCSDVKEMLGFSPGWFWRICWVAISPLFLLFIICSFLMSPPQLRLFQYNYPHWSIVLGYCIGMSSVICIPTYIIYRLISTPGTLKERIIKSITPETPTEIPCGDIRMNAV
Description for Rat SERT: The supernatant was removed and re-centrifuged at 15,000 rpm for 30 min. […] Membranes were incubated with 0.6 nM [^3H]-Citalopram plus/minus test compounds for 60 min at 25° C. and harvested by rapid filtration over GF/C glass fiber filters (pretreated with 0.3% polyethylenimine) followed by four washes with ice-cold buffer.

Turning to `Clc1ccc(C2CNCc3cc(OCCCN4CCCCC4)ncc32)cc1Cl` (racemic) [Example 15, 4-(3,4-Dichloro-phenyl)-7-(3-piperidin-1-yl-propoxy)-1,2,3,4-tetrahydro-[2,6]-naphthyridine], the Ki at human SERT turned out to be 33 nM; at Rat SERT it was 20 nM; at human H3 receptor [1], 5 nM. Moreover, the Kb at human H3 receptor [2] (read-out: pA2 (converted)) is 12.6 nM.

For the compound `CN1Cc2cc(OCCCN3CCCCC3)ncc2C(c2ccc(Cl)c(Cl)c2)C1` (racemic) [Example 16, 4-(3,4-Dichloro-phenyl)-2-methyl-7-(3-piperidin-1-yl-propoxy)-1,2,3,4-tetrahydro-[2,6]-naphthyridine], the Ki at human SERT came out at 120 nM; at human H3 receptor [1], 18 nM. On human H3 receptor [2], this compound had a Kb of 20 nM.

Consider `Fc1ccccc1C1CNCc2cc(OCCCN3CCCCC3)ncc21` (stereo not shown) [Example 1, 4-(2-Fluoro-phenyl)-7-(3-piperidin-1-yl-propoxy)-1,2,3,4-tetrahydro-[2,6]naphthyridine], for which the inhibitory constant (Ki) at Rat SERT is 1000 nM; on human H3 receptor [1], 1 nM. Further, the Kb on human H3 receptor [2] (read-out: pA2 (converted)) is 0.794 nM.

`CN1Cc2cc(OCCCN3CCCCC3)ncc2C(c2ccccc2F)C1` (stereo not shown) [Example 2, 4-(2-Fluoro-phenyl)-2-methyl-7-(3-piperidin-1-yl-propoxy)-1,2,3,4-tetrahydro-[2,6]-naphthyridine]: the Ki at human SERT was determined as 768 nM; at Rat SERT (setting [3]), 191 nM; at human H3 receptor [1], 2 nM. The Kb on human H3 receptor [2] (read-out: pA2 (converted)) is 1 nM.

For `c1ccc(C2CNCc3cc(OCCCN4CCCCC4)ncc32)cc1` (stereo not shown) [Example 4, 4-Phenyl-7-(3-piperidin-1-yl-propoxy)-1,2,3,4-tetrahydro-[2,6]naphthyridine], the Ki turned out to be 2330 nM at human SERT, 1670 nM at Rat SERT (setting [3]) and 1 nM at human H3 receptor [1]. The Kb on human H3 receptor [2] (read-out: pA2 (converted)) is 0.794 nM.

`CCN(CC)CCCOc1cc2c(cn1)C(c1ccccc1)CNC2` (stereo not shown) [Example 5, Diethyl-[3-(8-phenyl-5,6,7,8-tetrahydro-[2,6]naphthyridin-3-yloxy)-propyl]-amine]: the Ki on Rat SERT (setting [4]) came out at 1200 nM; at human H3 receptor [1], 1 nM. Further, the Kb at human H3 receptor [2] (read-out: pA2 (converted)) is 2 nM.

For the compound `COc1ccc(C2CNCc3cc(OCCCN4CCCCC4)ncc32)cc1` (stereo not shown) [Example 6, 4-(4-Methoxy-phenyl)-7-(3-piperidin-1-yl-propoxy)-1,2,3,4-tetrahydro-[2,6]-naphthyridine], the Ki on human SERT came out at 147 nM; on Rat SERT (setting [4]), 2280 nM; at human H3 receptor [1] it was 4 nM. Moreover, at human H3 receptor [2] (read-out: pA2 (converted)), the Kb was 6.31 nM.

For `CCN(CC)CCCOc1cc2c(cn1)C(c1ccccc1)CN(C)C2` (stereo not shown) [Example 7, Diethyl-[3-(6-methyl-8-phenyl-5,6,7,8-tetrahydro-[2,6]naphthyridin-3-yloxy)-propyl]-amine], the Ki on human SERT was 2000 nM; on Rat SERT (setting [3]) it was 583 nM; on human H3 receptor [1] it was 4 nM. Moreover, the Kb on human H3 receptor [2] (read-out: pA2 (converted)) is 0.631 nM.

For `COc1cccc(C2CNCc3cc(OCCCN4CCCCC4)ncc32)c1` (stereo not shown) [Example 13, 4-(3-Methoxy-phenyl)-7-(3-piperidin-1-yl-propoxy)-1,2,3,4-tetrahydro-[2,6]-naphthyridine], the Ki amounted to 179 nM at Rat SERT and 1 nM at human H3 receptor [1]. In addition, the Kb at human H3 receptor [2] (read-out: pA2 (converted)) was 1 nM.

Regarding `Fc1ccc(C2CNCc3cc(OCCCN4CCCCC4)ncc32)cc1` (stereo not shown) [Example 17, 4-(4-Fluoro-phenyl)-7-(3-piperidin-1-yl-propoxy)-1,2,3,4-tetrahydro-[2,6]naphthyridine], the figures for the inhibitory constant (Ki) at human SERT, at Rat SERT and on human H3 receptor [1] were 1030 nM, 312 nM and 2 nM, respectively. Further, the Kb on human H3 receptor [2] (read-out: pA2 (converted)) was 2.51 nM.

On to `CN1Cc2cc(OCCCN3CCCCC3)ncc2C(c2ccc(F)cc2)C1` (stereo not shown) [Example 18, 4-(4-Fluoro-phenyl)-2-methyl-7-(3-piperidin-1-yl-propoxy)-1,2,3,4-tetrahydro-[2,6]-naphthyridine], for which the Ki is 362 nM on human SERT, 186 nM at Rat SERT (setting [3]) and 9 nM at human H3 receptor [1]. Also, at human H3 receptor [2] (read-out: pA2 (converted)), the Kb was 3.98 nM.

In the case of `CCN(CC)CCCOc1cc2c(cn1)C(c1ccc(Cl)c(Cl)c1)CNC2` (stereo not shown) [Example 21, {3-[8-(3,4-Dichloro-phenyl)-5,6,7,8-tetrahydro-[2,6]naphthyridin-3-yloxy]-propyl}-diethyl-amine], the values for the Ki on human SERT, on Rat SERT (setting [3]) and on human H3 receptor [1] were 26 nM, 15 nM and 7 nM, respectively. In addition, at human H3 receptor [2] (read-out: pA2 (converted)), the Kb was 15.8 nM.

`Clc1ccc(C2CNCc3cc(OCCCN4CCCCC4)ncc32)cc1` (stereo not shown) [Example 23, 4-(4-Chloro-phenyl)-7-(3-piperidin-1-yl-propoxy)-1,2,3,4-tetrahydro-[2,6]naphthyridine]: the values for the Ki on human SERT, at Rat SERT (setting [3]) and on human H3 receptor [1] were 141 nM, 30 nM and 2 nM, respectively. Moreover, the Kb at human H3 receptor [2] (read-out: pA2 (converted)) is 3.98 nM.

For the compound `Clc1cccc(C2CNCc3cc(OCCCN4CCCCC4)ncc32)c1` (stereo not shown) [Example 24, 4-(3-Chloro-phenyl)-7-(3-piperidin-1-yl-propoxy)-1,2,3,4-tetrahydro-[2,6]naphthyridine], the Ki at Rat SERT (setting [4]) was found to be 269 nM; on human H3 receptor [1], 2 nM. Moreover, on human H3 receptor [2] (read-out: pA2 (converted)), the Kb is 2.51 nM.

Take `Clc1ccccc1C1CNCc2cc(OCCCN3CCCCC3)ncc21` (stereo not shown) [Example 25, 4-(2-Chloro-phenyl)-7-(3-piperidin-1-yl-propoxy)-1,2,3,4-tetrahydro-[2,6]naphthyridine]: the inhibition constant (Ki) on human SERT worked out at 1330 nM; on Rat SERT (setting [3]), 194 nM; on human H3 receptor [1], 1 nM. In addition, at human H3 receptor [2] (read-out: pA2 (converted)), the Kb was 1 nM.

For the compound `COc1ccc(C2CNCc3cc(OCC4CCN(C(C)C)CC4)ncc32)cc1` (stereo not shown) [Example 31, 7-(1-Isopropyl-piperidin-4-ylmethoxy)-4-(4-methoxy-phenyl)-1,2,3,4-tetrahydro-[2,6]-naphthyridine], the figures for the Ki at human SERT, on Rat SERT (setting [3]) and on human H3 receptor [1] were 93 nM, 15 nM and 4 nM, respectively. The Kb on human H3 receptor [2] (read-out: pA2 (converted)) is 3.98 nM.

For the compound `Fc1cccc(C2CNCc3cc(OCCCN4CCCCC4)ncc32)c1` (stereo not shown) [Example 32, 4-(3-Fluoro-phenyl)-7-(3-piperidin-1-yl-propoxy)-1,2,3,4-tetrahydro-[2,6]naphthyridine], the inhibition constant (Ki) on Rat SERT worked out at 2000 nM; on human H3 receptor [1], 2 nM. Moreover, the Kb at human H3 receptor [2] (read-out: pA2 (converted)) is 2.51 nM.

Consider `Fc1ccc(C2CNCc3cc(OCCCN4CCCCC4)ncc32)cc1Cl` (stereo not shown) [Example 33, 4-(3-Chloro-4-fluoro-phenyl)-7-(3-piperidin-1-yl-propoxy)-1,2,3,4-tetrahydro-[2,6]naphthyridine], for which the inhibition constant Ki at Rat SERT was determined as 142 nM; at human H3 receptor [1] it was 1 nM. Moreover, the Kb at human H3 receptor [2] (read-out: pA2 (converted)) is 3.16 nM.

On to `CN1Cc2cc(OCCCN3CCCCC3)ncc2C(c2cccc(F)c2)C1` (stereo not shown) [Example 34, 4-(3-Fluoro-phenyl)-2-methyl-7-(3-piperidin-1-yl-propoxy)-1,2,3,4-tetrahydro-[2,6]-naphthyridine], for which the Ki on Rat SERT stood at 186 nM; on human H3 receptor [1] it was 2 nM. Besides, the Kb on human H3 receptor [2] (read-out: pA2 (converted)) was 1 nM.

Regarding `c1ccc(C2CNCc3cc(OCCCN4CCOCC4)ncc32)cc1` (stereo not shown) [Example 47, 7-(3-Morpholin-4-yl-propoxy)-4-phenyl-1,2,3,4-tetrahydro-[2,6]naphthyridine], the affinity at human H3 receptor [1] corresponds to a Ki of 11 nM. For the same compound, at human H3 receptor [2], the Kb was 12.6 nM.

Turning to `COc1ccc(C2CN(C)Cc3cc(CCCCN4CCCCC4)cnc32)cc1` (stereo not shown) [Example 49, 8-(4-Methoxy-phenyl)-6-methyl-3-(4-piperidin-1-yl-butyl)-5,6,7,8-tetrahydro-[1,6]-naphthyridine trifluoroacetic acid salt], the Ki is 2000 nM on human SERT, 623 nM on Rat SERT and 78 nM on human H3 receptor [1].

Turning to `COc1ccc(C2CN(C)Cc3nc(OCCCN4CCCCC4)ccc32)cc1` (stereo not shown) [Example 50, 5-(4-Methoxy-phenyl)-7-methyl-2-(3-piperidin-1-yl-propoxy)-5,6,7,8-tetrahydro-[1,7]naphthyridine], the inhibition constant (Ki) worked out at 7 nM at human SERT, 4 nM on Rat SERT and 1 nM on human H3 receptor [1].

`COc1ccc(C2CN(C)Cc3nc(C#CCCN4CCCCC4)ccc32)cc1` (stereo not shown) [Example 51, 5-(4-Methoxy-phenyl)-7-methyl-2-(4-piperidin-1-yl-but-1-ynyl)-5,6,7,8-tetrahydro-[1,7]naphthyridine]: the Ki is 32 nM on human SERT, 21 nM at Rat SERT and 11 nM at human H3 receptor [1].
